Source: patent US5658910A, “Nicotinic acid esters” (Pharmacia AB, priority 1992, dated 1997)
Structures can show the parent of a compound that is named as a salt.

Key:
5HT2-receptors = molecular target: T1, 5HT2-receptors (Rattus norvegicus, UniProt P14842); assay: Affinity for 5HT2-receptors (Test 1, 3H-ketanserin binding, Leysen et al.); details: 3H-ketanserin as ligand
T1 construct: from tissue
Protocol: Test 1. Affinity for 5HT2-receptors
The binding assay was carried out essentially as described by Leysen et al., (Mol. Pharmcol. 21, 301-314, 1982) using 3 H-kezanserine as ligand.

5HT1A-receptors = molecular target: T2, 5HT1A-receptors (Bos taurus, UniProt F6Q2H9); assay: Affinity for 5HT1A-receptors (Test 2, Peroutka binding assay)
T2 construct: from tissue
T2 sequence (F6Q2H9 1-422): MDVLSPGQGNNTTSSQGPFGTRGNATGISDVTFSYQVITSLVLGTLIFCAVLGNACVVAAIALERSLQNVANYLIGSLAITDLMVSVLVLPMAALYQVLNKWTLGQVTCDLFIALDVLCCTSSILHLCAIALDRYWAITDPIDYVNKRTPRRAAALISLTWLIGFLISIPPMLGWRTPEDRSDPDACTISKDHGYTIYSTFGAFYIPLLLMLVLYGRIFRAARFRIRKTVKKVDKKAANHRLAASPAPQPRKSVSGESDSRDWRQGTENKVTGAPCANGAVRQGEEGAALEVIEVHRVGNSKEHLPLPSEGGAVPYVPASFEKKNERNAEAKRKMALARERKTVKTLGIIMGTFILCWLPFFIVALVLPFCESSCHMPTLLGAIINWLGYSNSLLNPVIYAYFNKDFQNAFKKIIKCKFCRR

T1 sequence (P14842 whole entry): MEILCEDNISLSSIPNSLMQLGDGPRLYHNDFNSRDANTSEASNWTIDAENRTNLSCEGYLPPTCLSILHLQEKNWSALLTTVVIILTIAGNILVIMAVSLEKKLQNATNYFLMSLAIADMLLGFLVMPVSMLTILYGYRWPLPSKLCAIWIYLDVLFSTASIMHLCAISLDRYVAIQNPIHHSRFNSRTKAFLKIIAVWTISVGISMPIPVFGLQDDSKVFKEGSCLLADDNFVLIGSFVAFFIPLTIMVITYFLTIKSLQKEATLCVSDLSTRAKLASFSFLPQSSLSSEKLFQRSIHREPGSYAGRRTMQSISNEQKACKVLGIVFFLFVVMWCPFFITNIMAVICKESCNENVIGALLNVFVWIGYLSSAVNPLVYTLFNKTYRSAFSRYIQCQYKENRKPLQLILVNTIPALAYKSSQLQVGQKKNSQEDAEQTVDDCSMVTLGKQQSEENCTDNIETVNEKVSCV

| Compound | Ki (5HT2-receptors) [nM] | Ki (5HT1A-receptors) [nM] |
| --- | --- | --- |
| CCOC(=O)c1cccnc1N1CCN(CCCC(c2ccc(F)cc2)c2ccc(F)cc2)CC1 [2:1, 3-Pyridinecarboxylic acid (2-(4-(4,4-bis(4-fluorophenyl)butyl)-1-piperazinyl-)ethyl ester hydrochloride] | 5.7 | 1.2 |
| COC(=O)c1cccnc1N1CCN(CCCC(c2ccc(F)cc2)c2ccc(F)cc2)CC1 [2:4, 1-[4,4 -Bis(p-fluorophenyl)butyl]-4-(3-methoxycarbonyl-2-pyridyl)-piperazine, hydrochloride] | 4 | 0.7 |
| CC(C)CCOC(=O)c1cccnc1N1CCN(CCCC(c2ccc(F)cc2)c2ccc(F)cc2)CC1 [2:7, 1-[4,4-Bis(p-fluorophenyl)butyl]-4-(3-isoamyloxycarbonyl-2-pyridyl)-piperazine, hydrochloride] | 2.7 | 14 |
| O=C(OCc1ccccn1)c1cccnc1N1CCN(CCCC(c2ccc(F)cc2)c2ccc(F)cc2)CC1 [2:10, 1-[4,4-Bis(p-fluorophenyl)butyl]-4-[3-(2-pyridinylmethoxycarbonyl)-2-pyridyl]-piperazine, hydrochloride] | 0.6 | – |
